# Data as given in publication PMC11882969 (Nature Communications, 2025).
# Several values for one entry are separate records, joined by “and”; a condition that tells them apart may be missing. Equal values may be shown once.
# Experiments:
# hCB1 [1] = biological target: T1, hCB1 (Homo sapiens, UniProt P21554); assay: bioSensAll ebBRET signaling profiling, hCB1; format: cell-based; design: host or cells: HEK293SL cells, transient PEI transfection; conditions: for Gi1 hCB1 response: Gi1 biosensor; for Gi1 hCB1 / GoB hCB1: single replicate values, FigS6a; for EC50: read-out: EC50 [95% CI]; for Emax: normalized to CP-55,940
# CB1 (rCB1) = CB1 (rCB1) (Rattus norvegicus, UniProt P20272); assay: Radioligand competition binding, [3H]-CP-55,940, rat brain membranes
# hCB1 [2] = biological target: T1, hCB1; assay: Lance Ultra cAMP accumulation assay, CHO cells; format: cell-based; design: expressed in transfected cells;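 note: human CB1R stably expressed in CHO cells, ligands co-incubated with forskolin at room temperature, read-out is lowering of forskolin-stimulated cAMP accumulation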
# T1 sequence (P21554 whole entry): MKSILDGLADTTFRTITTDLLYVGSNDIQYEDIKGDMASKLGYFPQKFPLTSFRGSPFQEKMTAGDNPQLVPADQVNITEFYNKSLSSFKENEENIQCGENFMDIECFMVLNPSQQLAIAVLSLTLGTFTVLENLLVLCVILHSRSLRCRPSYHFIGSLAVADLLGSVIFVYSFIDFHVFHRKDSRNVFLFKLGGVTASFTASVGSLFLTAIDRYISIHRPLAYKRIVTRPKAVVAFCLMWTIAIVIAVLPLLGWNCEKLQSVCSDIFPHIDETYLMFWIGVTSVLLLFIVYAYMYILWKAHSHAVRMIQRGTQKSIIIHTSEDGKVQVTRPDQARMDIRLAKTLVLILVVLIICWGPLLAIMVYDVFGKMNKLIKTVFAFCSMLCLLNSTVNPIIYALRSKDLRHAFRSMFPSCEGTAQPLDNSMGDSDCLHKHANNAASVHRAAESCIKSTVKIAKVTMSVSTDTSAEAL
# CB1 (rCB1), sequence (P20272 whole entry): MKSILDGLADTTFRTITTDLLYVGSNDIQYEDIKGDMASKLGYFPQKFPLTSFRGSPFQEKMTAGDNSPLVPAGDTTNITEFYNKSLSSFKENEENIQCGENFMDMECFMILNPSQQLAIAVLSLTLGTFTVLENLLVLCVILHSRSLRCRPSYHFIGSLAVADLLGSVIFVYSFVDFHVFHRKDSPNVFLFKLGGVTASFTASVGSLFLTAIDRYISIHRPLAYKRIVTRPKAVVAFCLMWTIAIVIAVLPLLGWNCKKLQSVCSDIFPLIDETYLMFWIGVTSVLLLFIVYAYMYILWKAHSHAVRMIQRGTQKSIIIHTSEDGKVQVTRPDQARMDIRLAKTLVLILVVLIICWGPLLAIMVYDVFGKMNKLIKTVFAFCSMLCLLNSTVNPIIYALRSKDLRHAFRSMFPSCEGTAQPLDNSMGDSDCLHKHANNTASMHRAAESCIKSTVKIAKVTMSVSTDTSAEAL
compound,measurement,setting,value
COC(=O)[C@](C)(NC(=O)c1cc(C)n(-c2cccc(C(F)(F)F)c2)n1)c1cccs1 [‘8690],Gi1 hCB1 response,hCB1 [1]; Log [Compound] (M) -4.63927,107.576
same,Gi1 hCB1 response,hCB1 [1]; Log [Compound] (M) -5.05788,100.593
same,Gi1 hCB1 response,hCB1 [1]; Log [Compound] (M) -5.47381,88.91
same,Gi1 hCB1 response,hCB1 [1]; Log [Compound] (M) -5.89285,68.8562
same,Gi1 hCB1 response,hCB1 [1]; Log [Compound] (M) -6.31878,81.5241
same,Gi1 hCB1 response,hCB1 [1]; Log [Compound] (M) -6.72585,77.4731
same,Gi1 hCB1 response,hCB1 [1]; Log [Compound] (M) -7.14267,64.4023
same,Gi1 hCB1 response,hCB1 [1]; Log [Compound] (M) -7.55284,52.8535
same,Gi1 hCB1 response,hCB1 [1]; Log [Compound] (M) -8,17.9832
same,Gi1 hCB1 response,hCB1 [1]; Log [Compound] (M) -8.22186,31.0987
same,Gi1 hCB1 response,hCB1 [1]; Log [Compound] (M) -8.39794,14.4917
same,Gi1 hCB1 response,hCB1 [1]; Log [Compound] (M) -8.68787,15.566
same,Gi1 hCB1 response,hCB1 [1]; Log [Compound] (M) -9.15521,3.502
same,Gi1 hCB1 response,hCB1 [1]; Log [Compound] (M) -9.61989,4.487
same,Gi1 hCB1 response,hCB1 [1]; Log [Compound] (M) -10.0969,-7.576
same,Gi1 hCB1 response,hCB1 [1]; Log [Compound] (M) -10.5529,-10.5308
same,Gi1 hCB1 response,hCB1 [1]; Log [Compound] (M) -11.0177,-2.272
same,Gi1 hCB1 response,hCB1 [1]; Log [Compound] (M) -11.4949,-1.802
same,Gi1 hCB1 response,hCB1 [1]; Log [Compound] (M) -11.9208,-1.466
same,Gi1 hCB1 response,hCB1 [1]; Log [Compound] (M) -12.3979,8.695
same,Gi1 hCB1 response,hCB1 [1]; Log [Compound] (M) -12.8861,6.367
same,Gi1 hCB1 response,"hCB1 [1]; Log [Compound] (M) -13, individual replicate values",-3.951
same,Gi1 hCB1,hCB1 [1]; Log [Compound] (M) -4.22186,95.271 and 72.3781
same,GoB hCB1,hCB1 [1]; Log [Compound] (M) -4.22186,82.2993 and 86.8881
same,Gi1 hCB1,hCB1 [1]; Log [Compound] (M) -4.63927,89.1198 and 73.8984
same,GoB hCB1,hCB1 [1]; Log [Compound] (M) -4.63927,85.86 and 78.0511
same,Gi1 hCB1,hCB1 [1]; Log [Compound] (M) -5.05788,89.7364 and 64.618
same,GoB hCB1,hCB1 [1]; Log [Compound] (M) -5.05788,82.8568 and 73.8497
same,Gi1 hCB1,hCB1 [1]; Log [Compound] (M) -5.47381,86.2831 and 71.6021
same,GoB hCB1,hCB1 [1]; Log [Compound] (M) -5.47381,95.4631 and 77.0615
same,Gi1 hCB1,hCB1 [1]; Log [Compound] (M) -5.89285,88.8731 and 77.0341
same,GoB hCB1,hCB1 [1]; Log [Compound] (M) -5.89285,89.4387 and 75.2907
same,Gi1 hCB1,hCB1 [1]; Log [Compound] (M) -6.31878,83.354 and 71.8555
same,GoB hCB1,hCB1 [1]; Log [Compound] (M) -6.31878,83.9538 and 76.1935
same,Gi1 hCB1,hCB1 [1]; Log [Compound] (M) -6.72585,79.6848 and 68.7673
same,GoB hCB1,hCB1 [1]; Log [Compound] (M) -6.72585,88.3597 and 69.9433
same,Gi1 hCB1,hCB1 [1]; Log [Compound] (M) -7.14267,72.1769 and 53.833
same,GoB hCB1,hCB1 [1]; Log [Compound] (M) -7.14267,73.7932 and 56.1409
same,Gi1 hCB1,hCB1 [1]; Log [Compound] (M) -7.55284,51.6729 and 43.6499
same,GoB hCB1,hCB1 [1]; Log [Compound] (M) -7.55284,61.8702 and 41.6614
same,Gi1 hCB1,hCB1 [1]; Log [Compound] (M) -8,32.3713 and 22.1909
same,GoB hCB1,hCB1 [1]; Log [Compound] (M) -8,32.3776 and 21.4874
same,Gi1 hCB1,hCB1 [1]; Log [Compound] (M) -8.22186,19.0514 and 17.5665
same,GoB hCB1,hCB1 [1]; Log [Compound] (M) -8.22186,16.1566 and 14.2824
same,Gi1 hCB1,hCB1 [1]; Log [Compound] (M) -8.39794,17.4789 and 12.7996
same,GoB hCB1,hCB1 [1]; Log [Compound] (M) -8.39794,19.8252 and 10.1677
same,Gi1 hCB1,hCB1 [1]; Log [Compound] (M) -8.68787,7.998 and 0.7635
same,GoB hCB1,hCB1 [1]; Log [Compound] (M) -8.68787,1.86 and 2.6849
same,Gi1 hCB1,hCB1 [1]; Log [Compound] (M) -9.15521,2.91 and 0.2884
same,GoB hCB1,hCB1 [1]; Log [Compound] (M) -9.15521,1.788 and -5.44
same,Gi1 hCB1,hCB1 [1]; Log [Compound] (M) -9.61989,1.7386 and -5.445
same,GoB hCB1,hCB1 [1]; Log [Compound] (M) -9.61989,-0.8737 and -6.308
same,Gi1 hCB1,hCB1 [1]; Log [Compound] (M) -10.0969,1.245 and -4.415
same,GoB hCB1,hCB1 [1]; Log [Compound] (M) -10.0969,-2.852 and -5.544
same,Gi1 hCB1,hCB1 [1]; Log [Compound] (M) -10.5529,0.9678 and -3.3699
same,GoB hCB1,hCB1 [1]; Log [Compound] (M) -10.5529,-2.528 and -5.649
same,Gi1 hCB1,hCB1 [1]; Log [Compound] (M) -11.0177,2.371 and -4.415
same,GoB hCB1,hCB1 [1]; Log [Compound] (M) -11.0177,-2.294 and -7.871
same,Gi1 hCB1,hCB1 [1]; Log [Compound] (M) -11.4949,-0.1731 and -5.27
same,GoB hCB1,hCB1 [1]; Log [Compound] (M) -11.4949,0.583 and -6.36
same,Gi1 hCB1,hCB1 [1]; Log [Compound] (M) -11.9208,0.6903 and -3.196
same,GoB hCB1,hCB1 [1]; Log [Compound] (M) -11.9208,1.158 and -6.864
same,Gi1 hCB1,hCB1 [1]; Log [Compound] (M) -12.3979,1.692 and -4.146
same,GoB hCB1,hCB1 [1]; Log [Compound] (M) -12.3979,3.838 and -6.76
same,Gi1 hCB1,hCB1 [1]; Log [Compound] (M) -12.8861,2.602 and -5.207
same,GoB hCB1,hCB1 [1]; Log [Compound] (M) -12.8861,-0.1004 and -5.944
same,Gi1 hCB1,hCB1 [1]; Log [Compound] (M) -13,1.677 and 3.693
same,GoB hCB1,hCB1 [1]; Log [Compound] (M) -13,-0.7478 and -0.8395
same,Gi1 hCB1,hCB1 [1]; Log [Compound] (M) cell empty,-2.293
same,GoB hCB1,hCB1 [1]; Log [Compound] (M) cell empty,-5.1625
same,pEC50 [95% CI],hCB1 [1]; hCB1 Gi1,7.72 [7.6 – 7.8]
same,pEC50 [95% CI],hCB1 [1]; hCB1 GoB,7.8 [7.7 – 7.9]
same,pEC50 [95% CI],hCB1 [1]; hCB1 Gz,7.5 [6.9 – 7.8]
same,EC50,hCB1 [1]; hCB1 GoB,18 nM
same,EC50,hCB1 [1]; hCB1 Gz,33 nM
same,Emax,"hCB1 [1]; read-out: Emax [95% CI], hCB1 Gi1",82%
same,Emax,"hCB1 [1]; read-out: Emax [95% CI], hCB1 GoB",83%
same,Emax,"hCB1 [1]; read-out: Emax [95% CI], hCB1 Gz",98%
same,pKi [95% CI],CB1 (rCB1); rCB1,7.1 [6.9 – 7.3]
same,Ki,"CB1 (rCB1); read-out: Ki [95% CI], rCB1, [3H]-CP-55,940",90.2 nM
same,EC50,hCB1 [2],473 nM
same,Lance Ultra cAMP pEC50,hCB1 [2],6.3 [5.8 – 7.0]
same,Emax,hCB1 [2]; CHO,53%
